From patent publication US20230393140A1, “BINDING ASSAYS INVOLVING A PLURALITY OF SYNTHETIC COMPOUNDS, TARGETS, AND COUNTER TARGETS” (SRI International, priority 2020, published 2023) come the findings set out here.

Numbered stars: 1 amine (or outer) side, 2 acyl side, 3 side chain; on linkers, the order of the positions; unused ones are H or OH. Square brackets hold non-standard residues; d marks the D form. Peptide text beside a SMILES is read from it. * marks the point of attachment. 5FAM = O=C1OC2(c3ccc(O)cc3Oc3cc(O)ccc32)c2ccc(C(=O)*)cc21; NHCH2C6H4(4-CH2CONH2) = NC(=O)Cc1ccc(CN*)cc1; X1 = O=C(Cc1ccc(CN[*:1])cc1)[*:2]

Sequence of TNFα (P01375 77-233 limits assumed): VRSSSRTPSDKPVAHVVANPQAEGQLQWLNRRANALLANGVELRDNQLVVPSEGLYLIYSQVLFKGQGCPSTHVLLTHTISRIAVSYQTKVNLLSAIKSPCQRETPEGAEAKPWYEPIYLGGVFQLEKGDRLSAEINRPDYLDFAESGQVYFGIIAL

The assay addresses TNFα (Homo sapiens, UniProt P01375). Put plainly: MST binding affinity of resynthesized NNP hits to TNFα. Also noted: purchased R&D Systems, Inc. 210-TA/CF. The note with it: read-out: KD (nM) [95% conf. int], NNP2 library hit, target TNFα, one-site binding model. The protocol:
Hit binding affinity to various targets were determined using Microscale Thermophoresis (MST). MST experiments were performed on a Monolith NT.115pico (NanoTemper Technologies GmbH, Munich, Germany). Measurements were performed at room temperature, in triplicate with incubation periods of 15, 30 and 45 minutes. […] Targets were labeled using Nanotemper Monolith 2nd Generation Protein Labeling Kits. RED-MALEIMIDE (Maleimide-647-dye) labeling kit was used for K-Ras and RED-NHS (NHS-647-dye) labeling kit was used for IL-6, IL-6R, TNFα and ASGPR. The buffer for the ASGPR contained 20 mM HEPES pH 7.4, 150 mM NaCl, 10 mM MgCl2, 2 mM CaCl2, 0.05% Pluronic F-127, and 1 mM DTT; for IL-6 contained 20 mM HEPES pH 7.4, 150 mM KCl, 10 mM MgCl2, and 0.1% Pluronic F-127; for the soluble IL-6 receptor 20 mM HEPES pH 7.4, 150 mM NaCl, 10 mM MgCl2, and 0.05% Tween-20; for K-Ras 20 mM HEPES pH 7.4, 150 mM NaCl, 10 mM MgCl2, 0.05% Tween-20 and 1 mM DTT; for TNFα 10 mM HEPES pH 7.4, 150 mM NaCl, 10 mM MgCl2, 0.05% Polysorbate-20. Triplicate data was analyzed using MO.AffinityAnalysis software (NanoTemper Technologies GmbH).
As to `CC(C)C[C@H](NC(=O)[C@@H](CCCNC(=N)N)NC(=O)CNC(=O)Cc1ccc(CNC(=O)[C@H](CC(C)C)NC(=O)[C@@H](CC(C)C)NC(=O)[C@@H](Cc2ccc(O)cc2)NC(=O)c2ccc3c(c2)C(=O)OC32c3ccc(O)cc3Oc3cc(O)ccc32)cc1)C(=O)NCc1ccc(CC(=O)N[C@H](Cc2ccccc2)C(=O)N[C@H](CCC(=O)O)C(=O)N[C@H](C(=O)NCc2ccc(CC(=O)N[C@H](Cc3c[nH]c4ccccc34)C(=O)N[C@H](CCCNC(=N)N)C(=O)N[C@@H](CC(C)C)C(=O)NCc3ccc(CC(=O)N[C@H](Cc4c[nH]c5ccccc45)C(=O)N[C@H](CCCNC(=N)N)C(=O)N[C@H](C(=O)NCc4ccc(CC(=O)N[C@H](CCCNC(=N)N)C(=O)N[C@H](Cc5ccc(O)cc5)C(=O)N[C@@H](CC(C)C)C(=O)NCc5ccc(CC(=O)N6CCC[C@@H]6C(=O)NCC(=O)N[C@H](C(=O)NCc6ccc(CC(=O)N[C@H](Cc7c[nH]cn7)C(=O)N[C@H](CO)C(=O)N[C@@H](CC(C)C)C(=O)NCc7ccc(CC(=O)N[C@H](Cc8ccccc8)C(=O)N[C@H](CCCCN)C(=O)NCC(=O)NCc8ccc(CC(N)=O)cc8)cc7)cc6)C(C)C)cc5)cc4)C(C)C)cc3)cc2)C(C)C)cc1` [TNF-39-2] (5FAM-[dY][dL]L[X1]G[dR]L[X1][dF][dE]V[X1][dW][dR]L[X1][dW][dR]V[X1][dR][dY]L[X1][dP]GV[X1][dH][dS]L[X1][dF][dK]G-{NHCH2C6H4(4-CH2CONH2)}), the dissociation constant Kd is 200 nM. In the case of `CC(C)C[C@H](NC(=O)[C@@H](CCCCN)NC(=O)[C@@H](Cc1c[nH]c2ccccc12)NC(=O)Cc1ccc(CNC(=O)[C@@H](NC(=O)CNC(=O)[C@H]2CCCN2C(=O)Cc2ccc(CNC(=O)[C@H](CC(C)C)NC(=O)[C@@H](Cc3ccc(O)cc3)NC(=O)[C@@H](CCCNC(=N)N)NC(=O)Cc3ccc(CNC(=O)[C@H](Cc4ccccc4)NC(=O)[C@@H](CCCCN)NC(=O)[C@@H](C)NC(=O)Cc4ccc(CNC(=O)[C@H](C)NC(=O)[C@@H](CCCNC(=N)N)NC(=O)[C@@H](Cc5ccccc5)NC(=O)Cc5ccc(CNC(=O)[C@@H](NC(=O)[C@@H](CCC(=O)O)NC(=O)[C@@H](Cc6ccccc6)NC(=O)Cc6ccc(CNC(=O)[C@H](CC(C)C)NC(=O)[C@@H](CCCNC(=N)N)NC(=O)[C@@H](CC(C)C)NC(=O)Cc7ccc(CNC(=O)[C@H](Cc8ccccc8)NC(=O)[C@@H](CC(C)C)NC(=O)[C@H](NC(=O)c8ccc9c(c8)C(=O)OC98c9ccc(O)cc9Oc9cc(O)ccc98)[C@H](C)O)cc7)cc6)C(C)C)cc5)cc4)cc3)cc2)C(C)C)cc1)C(=O)NCc1ccc(CC(=O)N[C@H](Cc2ccc(O)cc2)C(=O)N[C@H](CCCNC(=N)N)C(=O)N[C@@H](Cc2ccccc2)C(=O)NCc2ccc(CC(N)=O)cc2)cc1` [TNF-39-3] (5FAM-[dT][dL]F[X1][dL][dR]L[X1][dF][dE]V[X1][dF][dR]A[X1][dA][dK]F[X1][dR][dY]L[X1][dP]GV[X1][dW][dK]L[X1][dY][dR]F-{NHCH2C6H4(4-CH2CONH2)}), the Kd turned out to be 130 nM. On to `CC(C)C[C@H](NC(=O)[C@@H](CCC(=O)O)NC(=O)[C@H]1CCCN1C(=O)Cc1ccc(CNC(=O)[C@H](CC(C)C)NC(=O)[C@@H](CCCCN)NC(=O)[C@@H](Cc2ccccc2)NC(=O)Cc2ccc(CNC(=O)[C@@H](NC(=O)[C@@H](CCC(=O)O)NC(=O)[C@@H](Cc3ccccc3)NC(=O)Cc3ccc(CNC(=O)[C@H](CC(C)C)NC(=O)[C@@H](CCCNC(=N)N)NC(=O)[C@@H](CC(C)C)NC(=O)Cc4ccc(CNC(=O)[C@H](Cc5ccccc5)NC(=O)[C@@H](CC(C)C)NC(=O)[C@H](NC(=O)c5ccc6c(c5)C(=O)OC65c6ccc(O)cc6Oc6cc(O)ccc65)[C@H](C)O)cc4)cc3)C(C)C)cc2)cc1)C(=O)NCc1ccc(CC(=O)N2CCC[C@@H]2C(=O)N[C@H](CCC(=O)O)C(=O)N[C@@H](Cc2ccccc2)C(=O)NCc2ccc(CC(=O)N[C@H](Cc3c[nH]cn3)C(=O)N[C@H](CCC(=O)O)C(=O)N[C@@H](CC(C)C)C(=O)NCc3ccc(CC(=O)N4CCC[C@@H]4C(=O)N[C@H](CCCNC(=N)N)C(=O)N[C@@H](C)C(=O)NCc4ccc(CC(=O)N[C@H](Cc5c[nH]cn5)C(=O)N[C@H](Cc5ccc(O)cc5)C(=O)N[C@H](C(=O)NCc5ccc(CC(N)=O)cc5)C(C)C)cc4)cc3)cc2)cc1` [TNF-39-4] (5FAM-[dT][dL]F[X1][dL][dR]L[X1][dF][dE]V[X1][dF][dK]L[X1][dP][dE]L[X1][dP][dE]F[X1][dH][dE]L[X1][dP][dR]A[X1][dH][dY]V-{NHCH2C6H4(4-CH2CONH2)}), for which the dissociation constant Kd is 28 nM.

Regarding `CC(C)C[C@H](NC(=O)[C@@H](CCCNC(=N)N)NC(=O)[C@@H](CC(C)C)NC(=O)Cc1ccc(CNC(=O)[C@H](CC(C)C)NC(=O)[C@H](NC(=O)[C@@H](CCCCN)NC(=O)c2ccc3c(c2)C(=O)OC32c3ccc(O)cc3Oc3cc(O)ccc32)C(C)C)cc1)C(=O)NCc1ccc(CC(=O)N[C@H](Cc2ccccc2)C(=O)N[C@H](CCC(=O)O)C(=O)N[C@H](C(=O)NCc2ccc(CC(=O)N[C@H](Cc3ccccc3)C(=O)N[C@H](CCCNC(=N)N)C(=O)N[C@@H](C)C(=O)NCc3ccc(CC(=O)N[C@H](Cc4ccc(O)cc4)C(=O)N[C@H](CCCCN)C(=O)N[C@@H](C)C(=O)NCc4ccc(CC(=O)N[C@H](CCC(=O)O)C(=O)N[C@H](CO)C(=O)N[C@H](C(=O)NCc5ccc(CC(=O)N6CCC[C@@H]6C(=O)N[C@@H](C(=O)NCC(=O)NCc6ccc(CC(=O)N7CCC[C@@H]7C(=O)N[C@H](CCCNC(=N)N)C(=O)N[C@@H](C)C(=O)NCc7ccc(CC(=O)N[C@H](Cc8ccccc8)C(=O)N[C@H](CCCCN)C(=O)NCC(=O)NCc8ccc(CC(N)=O)cc8)cc7)cc6)C(C)C)cc5)C(C)C)cc4)cc3)cc2)C(C)C)cc1` [TNF-39-5] (5FAM-[dK][dV]L[X1][dL][dR]L[X1][dF][dE]V[X1][dF][dR]A[X1][dY][dK]A[X1][dE][dS]V[X1][dP][dV]G[X1][dP][dR]A[X1][dF][dK]G-{NHCH2C6H4(4-CH2CONH2)}), the Kd came out at 23 nM. Then `CC(C)C[C@H](NC(=O)[C@@H](CCCNC(=N)N)NC(=O)[C@@H](CC(C)C)NC(=O)Cc1ccc(CNC(=O)[C@H](CC(C)C)NC(=O)[C@@H](CC(C)C)NC(=O)[C@@H](Cc2ccc(O)cc2)NC(=O)c2ccc3c(c2)C(=O)OC32c3ccc(O)cc3Oc3cc(O)ccc32)cc1)C(=O)NCc1ccc(CC(=O)N[C@H](Cc2ccccc2)C(=O)N[C@H](CCC(=O)O)C(=O)N[C@H](C(=O)NCc2ccc(CC(=O)N3CCC[C@@H]3C(=O)N[C@H](CCCNC(=N)N)C(=O)N[C@H](C(=O)NCc3ccc(CC(=O)N[C@H](Cc4c[nH]c5ccccc45)C(=O)N[C@H](CCCNC(=N)N)C(=O)N[C@H](C(=O)NCc4ccc(CC(=O)N[C@H](CCCNC(=N)N)C(=O)N[C@H](Cc5ccc(O)cc5)C(=O)N[C@@H](CC(C)C)C(=O)NCc5ccc(CC(=O)N[C@H](CCC(=O)O)C(=O)N[C@@H](C(=O)N[C@H](C(=O)NCc6ccc(CC(=O)N[C@@H](C(=O)N[C@H](Cc7c[nH]cn7)C(=O)N[C@@H](CC(C)C)C(=O)NCc7ccc(CC(=O)N[C@H](Cc8ccc(O)cc8)C(=O)N[C@H](CCCNC(=N)N)C(=O)N[C@@H](Cc8ccccc8)C(=O)NCc8ccc(CC(N)=O)cc8)cc7)[C@H](C)O)cc6)C(C)C)C(C)C)cc5)cc4)C(C)C)cc3)C(C)C)cc2)C(C)C)cc1` [TNF-39-6] (5FAM-[dY][dL]L[X1][dL][dR]L[X1][dF][dE]V[X1][dP][dR]V[X1][dW][dR]V[X1][dR][dY]L[X1][dE][dV]V[X1][dT][dH]L[X1][dY][dR]F-{NHCH2C6H4(4-CH2CONH2)}), with 93 nM.

The Kd is a measure of binding affinity in units of concentration.
